In US11339157B1, “4H-pyrrolo[3,2-c]pyridin-4-one derivatives” (Bayer Aktiengesellschaft, priority 2017, dated 2022) one finds IC50 data, which are given here for 21 molecules.

“And” between values parts separate entries of the source, which are not always exact repeats. Equal values may be shown once. A value given as a limit tells only on which side of the number the result lay.

One may read the IC50 as the concentration that inhibits the measured activity by half.

Assay [1] concerns Ba/F3-EGFR-WT cells. As to the kind of experiment: Proliferation assay in BA/F3 (wild type) cells (Cell Titer-Glo). It counts as cell-based. The conditions noted are these: Mus musculus. The procedure:
(§1) Cellular Data Description (WT, insSVD, Ins ASV)
(§2) Plates were incubated at 37° C. for 48 h. Retrovirus was harvested by filtering the media supernatant through a 0.45 μm filter.
(§3) Ba/F3 cells purchased from DSMZ were grown in RPMI+10% FBS+10 ng/mL IL-3 and infected with filtered retroviral supernatant at a 1:2 dilution. Polybrene was added to a concentration of 8 μg/mL, plates were spun for 90 min, and incubated overnight at 37° C. 2 μg/mL puromycin was added to the infected cells 24 h after infection and cells were continually grown in the presence of puromycin and 10 ng/mL IL-3. Following stably expressing Ba/F3 cell lines were generated: Ba/F3-EGFR-WT, Ba/F3-EGFR-insSVD.
(§4) The cells ectopically expressing WT EGFR were plated with 10 ng/mL Millipore Culture grade EGF. The cells ectopically expressing EGFR-insSVD were plated without EGF.
(§5) 100 nL of compound was added to each well using a 100 nL pin head, and plates were incubated at 37° C. for 48 h.
(§6) Cell viability was measured by adding 30 μL of Cell Titer-Glo Luminescent Cell Viability Reagent. Plates were sealed with Perkin Elmer Top-Seal, inverted several times to mix, and immediately centrifuged at 1000 rpm for 2 min. Plates were incubated in low light conditions for 8-10 min and luminescence was measured.

Assay [2] deals with Ba/F3-EGFR-insSVD cells. Description: Proliferation assay in BA/F3 (ins SVD) cells (Cell Titer-Glo). In kind it is cell-based. The procedure:
as §1, §2, §3, §4, §5, §6
On the technique in general: Cellular ATP, detected with luciferase, serves as a proxy for viable cell number.

For assay [3], the target named is EGFR ins SVD (insertion of SVD between D770 and N771) (Homo sapiens, UniProt P00533, INS767SVD). Description: Exon 20-Mutant-EGFR(D770_N771insSVD) kinase assay (TR-FRET). The conditions noted are these: Table 9; read-out: mutEGFR (D770_N771insSVD) kinase assay IC50. In kind it is biochemical. Background: Time-resolved FRET reads energy transfer from a long-lived donor to a nearby acceptor.

[4] abbreviates: BaF3, 48 h, Table 10, plated with 10 ng/mL EGF.
The mark [5] stands for this setting: Mus musculus, BaF3, 48 h, Table 10, plated without EGF.
Setting [6] is: BaF3, Table 10, plated with 10 ng/mL EGF, 48 h.
Setting [7] is: Mus musculus, BaF3, Table 10, plated without EGF, 48 h.

EGFR ins SVD (insertion of SVD between D770 and N771), sequence (P00533 with tags, fused parts or gaps INS767SVD limits assumed): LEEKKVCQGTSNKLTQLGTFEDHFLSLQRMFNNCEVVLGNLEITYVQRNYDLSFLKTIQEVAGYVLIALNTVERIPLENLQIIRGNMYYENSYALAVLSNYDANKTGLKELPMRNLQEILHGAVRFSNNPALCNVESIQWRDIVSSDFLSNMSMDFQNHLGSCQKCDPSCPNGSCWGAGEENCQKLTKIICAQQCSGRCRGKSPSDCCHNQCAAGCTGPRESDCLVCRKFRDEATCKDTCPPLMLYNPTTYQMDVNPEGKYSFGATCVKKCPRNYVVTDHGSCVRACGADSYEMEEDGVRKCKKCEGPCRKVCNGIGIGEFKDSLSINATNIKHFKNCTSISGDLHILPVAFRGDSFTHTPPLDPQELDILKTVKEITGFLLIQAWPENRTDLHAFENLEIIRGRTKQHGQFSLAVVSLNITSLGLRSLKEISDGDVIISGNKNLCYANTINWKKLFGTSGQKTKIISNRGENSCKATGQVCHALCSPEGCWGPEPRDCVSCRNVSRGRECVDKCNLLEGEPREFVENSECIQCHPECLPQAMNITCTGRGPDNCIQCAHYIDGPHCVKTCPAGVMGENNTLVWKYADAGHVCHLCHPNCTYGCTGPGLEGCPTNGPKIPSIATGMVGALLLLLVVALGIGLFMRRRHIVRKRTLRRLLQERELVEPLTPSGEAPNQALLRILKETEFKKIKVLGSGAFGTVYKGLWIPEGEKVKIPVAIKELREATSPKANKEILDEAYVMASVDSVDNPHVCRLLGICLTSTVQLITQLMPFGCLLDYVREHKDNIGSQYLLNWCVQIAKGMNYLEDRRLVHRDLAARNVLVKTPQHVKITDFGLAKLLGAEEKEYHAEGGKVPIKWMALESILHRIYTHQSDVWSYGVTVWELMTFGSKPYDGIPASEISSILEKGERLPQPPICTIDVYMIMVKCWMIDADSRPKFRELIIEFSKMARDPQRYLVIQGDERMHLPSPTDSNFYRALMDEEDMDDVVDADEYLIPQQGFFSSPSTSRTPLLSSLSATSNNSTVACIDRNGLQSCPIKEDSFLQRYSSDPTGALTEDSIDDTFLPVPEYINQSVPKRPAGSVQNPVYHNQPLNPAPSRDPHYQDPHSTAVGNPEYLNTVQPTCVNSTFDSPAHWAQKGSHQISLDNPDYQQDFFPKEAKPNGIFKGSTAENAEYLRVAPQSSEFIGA

Take `COc1c(Cl)cccc1Nc1c(-c2ccncc2OCC(C)(C)O)[nH]c2c1C(=O)NCC2` [Example 59, 3-(3-chloro-2-methoxyanilino)-2-[3-(2-hydroxy-2-methylpropoxy)pyridin-4-yl]-1,5,6,7-tetrahydro-4H-pyrrolo[3,2-c]pyridin-4-one]: the figures for the IC50 in assay [1] (setting [4]), in assay [2] (setting [5]) and in assay [3] were 542 nM, 17.7 nM and under 0.0725 nM, respectively.
`COC(C)(C)COc1cnccc1-c1[nH]c2c(c1Nc1cccc(Cl)c1Br)C(=O)NCC2` [Example 78, 3-(2-bromo-3-chloroanilino)-2-[3-(2-methoxy-2-methylpropoxy)pyridin-4-yl]-1,5,6,7-tetrahydro-4H-pyrrolo[3,2-c]pyridin-4-one]: the IC50 in assay [1] (setting [4]) was 583 nM; in assay [2] (setting [5]) it was 16 nM; in assay [3] it was < 0.0725 nM and 0.0736 nM.
As for `COC(C)(C)COc1cnccc1-c1[nH]c2c(c1Nc1cccc(F)c1C#N)C(=O)NCC2` [Example 94, 2-fluoro-6-({2-[3-(2-methoxy-2-methylpropoxy)pyridin-4-yl]-4-oxo-4,5,6,7-tetrahydro-1H-pyrrolo[3,2-c]pyridin-3-yl}amino)benzonitrile], the IC50 was 4620 nM in assay [1] (setting [4]), 54.9 nM in assay [2] (setting [5]) and 0.228 nM in assay [3].
For `COC(C)(C)COc1cnccc1-c1[nH]c2c(c1Nc1ccccc1Cl)C(=O)NCC2` [Example 39, 3-(2-chloroanilino)-2-[3-(2-methoxy-2-methylpropoxy)pyridin-4-yl]-1,5,6,7-tetrahydro-4H-pyrrolo[3,2-c]pyridin-4-one] the same measures were 661 nM, 27.5 nM and 0.104 nM.
With `Cc1c(F)cc(F)cc1Nc1c(-c2ccncc2OC[C@@H]2CCCN2C)[nH]c2c1C(=O)NCC2` [Example 51, 3-(3,5-difluoro-2-methylanilino)-2-(3-{[(2S)-1-methylpyrrolidin-2-yl]methoxy}pyridin-4-yl)-1,5,6,7-tetrahydro-4H-pyrrolo[3,2-c]pyridin-4-one], the IC50 in assay [1] (setting [6]) is 3290 nM; in assay [2] (setting [7]) it was 107 nM; in assay [3] it was 0.732 nM.
For `O=C1NCCc2[nH]c(-c3ccncc3OCCN3CCOCC3)c(Nc3cccc(Cl)c3OC(F)F)c21` [Example 81, 3-[3-chloro-2-(difluoromethoxy)anilino]-2-{3-[2-(morpholin-4-yl)ethoxy]pyridin-4-yl}-1,5,6,7-tetrahydro-4H-pyrrolo[3,2-c]pyridin-4-one], in that order: 4190 nM, 405 nM and 0.441 nM.
Consider `Cc1c(F)cc(F)cc1Nc1c(-c2ccncc2OCC(C)(C)N(C)C)[nH]c2c1C(=O)NCC2` [Example 62, 3-(3,5-difluoro-2-methylanilino)-2-{3-[2-(dimethylamino)-2-methylpropoxy]pyridin-4-yl}-1,5,6,7-tetrahydro-4H-pyrrolo[3,2-c]pyridin-4-one], for which the figures for the IC50 in assay [1] (setting [4]), in assay [2] (setting [5]) and in assay [3] were 2760 nM, 166 nM and 0.663 nM, respectively.
For `COc1c(Cl)cccc1Nc1c(-c2ccncc2OC[C@@H]2CCCN2C)[nH]c2c1C(=O)NCC2` [Example 48, 3-(3-chloro-2-methoxyanilino)-2-(3-{[(2S)-1-methylpyrrolidin-2-yl]methoxy}pyridin-4-yl)-1,5,6,7-tetrahydro-4H-pyrrolo[3,2-c]pyridin-4-one], in that order: 276 nM, 5.59 nM and 0.358 nM.
For `O=C1NCCc2[nH]c(-c3ccncc3OCC3CCOCC3)c(Nc3cccc(Cl)c3OC(F)F)c21` [Example 82, 3-[3-chloro-2-(difluoromethoxy)anilino)-2-{3-[(oxan-4-yl)-methoxy]pyridin-4-yl}-1,5,6,7-tetrahydro-4H-pyrrolo[3,2-c]pyridin-4-one], in that order: 8610 nM, 909 nM and 0.399 nM.
For `COc1c(F)cccc1Nc1c(-c2ccncc2OCC(C)(C)O)[nH]c2c1C(=O)NCC2` [Example 72, 3-(3-fluoro-2-methoxyanilino)-2-[3-(2-hydroxy-2-methylpropoxy)pyridin-4-yl]-1,5,6,7-tetrahydro-4H-pyrrolo[3,2-c]pyridin-4-one], in that order: 1010 nM, 67.7 nM and 0.144 nM.
Turning to `CN1CCC[C@H]1COc1cnccc1-c1[nH]c2c(c1Nc1cccc(Cl)c1Cl)C(=O)NCC2` [Example 71, 3-(2,3-dichloroanilino)-2-(3-{[(2S)-1-methylpyrrolidin-2-yl]methoxy}pyridin-4-yl)-1,5,6,7-tetrahydro-4H-pyrrolo[3,2-c]pyridin-4-one], the IC50 in assay [1] (setting [4]) came out at 781 nM; in assay [2] (setting [5]), 20.2 nM; in assay [3] it was 0.258 nM.
For `Cc1c(Cl)cccc1Nc1c(-c2ccncc2OC[C@@H]2CCCN2C)[nH]c2c1C(=O)NCC2` [Example 77, 3-(3-chloro-2-methylanilino)-2-(3-{[(2S)-1-methylpyrrolidin-2-yl]methoxy}pyridin-4-yl)-1,5,6,7-tetrahydro-4H-pyrrolo[3,2-c]pyridin-4-one] the same measures were 1480 nM, 46.3 nM and 0.727 nM.
For `CCc1c(F)cccc1Nc1c(-c2ccncc2OCC(C)(C)OC)[nH]c2c1C(=O)NCC2` [Example 35, 3-(2-ethyl-3-fluoroanilino)-2-[3-(2-methoxy-2-methylpropoxy)pyridin-4-yl]-1,5,6,7-tetrahydro-4H-pyrrolo[3,2-c]pyridin-4-one] the same measures were 428 nM, 7.98 nM and 0.185 nM.
For `COc1c(Nc2c(-c3ccncc3OCCN(C)CC(F)(F)F)[nH]c3c2C(=O)NCC3)ccc(F)c1Cl` [Example 96, 3-(3-chloro-4-fluoro-2-methoxyanilino)-2-(3-{2-[methyl(2,2,2-trifluoroethyl)amino]ethoxy}pyridin-4-yl)-1,5,6,7-tetrahydro-4H-pyrrolo[3,2-c]pyridin-4-one] the same measures were 1470 nM, 49.6 nM and 0.305 nM.
Consider `Cc1c(Cl)cccc1Nc1c(-c2ccncc2OCCN(C)C)[nH]c2c1C(=O)NCC2` [Example 52, 3-(3-chloro-2-methylanilino)-2-{3[2-(dimethylamino)ethoxy]pyridin-4-yl}1,5,6,7-tetrahydro-4H-pyrrolo[3,2-c]pyridin-4-one], for which the IC50 in assay [1] (setting [4]) turned out to be 834 nM; in assay [2] (setting [5]), 29.1 nM; in assay [3] it was 0.55 nM.
For `COC(C)(C)COc1cnccc1-c1[nH]c2c(c1Nc1cccc(F)c1C(F)(F)F)C(=O)NCC2` [Example 41, 3-[3-fluoro-2-(trifluoromethyl)anilino]-2-[3-(2-methoxy-2-methylpropoxy)pyridin-4-yl]-1,5,6,7-tetrahydro-4H-pyrrolo[3,2-c]pyridin-4-one], in that order: 795 nM, 52.5 nM and 0.124 nM.
Regarding `O=C1NCCc2[nH]c(-c3ccncc3OCC3CCCCO3)c(Nc3cccc(Cl)c3Cl)c21` (stereo not shown) [Example 69, 3-(2,3-dichloroanilino)-2-{3-[(oxan-2-yl)methoxy]pyridin-4-yl}-1,5,6,7-tetrahydro-4H-pyrrolo[3,2-c]pyridin-4-one], the IC50 in assay [1] (setting [4]) worked out at 290 nM; in assay [2] (setting [5]) it was 12.4 nM; in assay [3], 0.106 nM.
Take `COc1c(Cl)cccc1Nc1c(-c2ccncc2OCC(C)(C)OC)[nH]c2c1C(=O)NCC2` [Example 33, 3-(3-chloro-2-methoxyanilino)-2-[3-(2-methoxy-2-methylpropoxy)pyridin-4-yl]-1,5,6,7-tetrahydro-4H-pyrrolo[3,2-c]pyridin-4-one]: the IC50 in assay [1] (setting [4]) was 476 nM; in assay [2] (setting [5]), 9.32 nM; in assay [3], 0.225 nM and 0.334 nM and 0.166 nM and 0.161 nM and 0.275 nM and < 0.0725 nM.
With `COc1c(Cl)cccc1Nc1c(-c2ccncc2OC[C@H]2CCCO2)[nH]c2c1C(=O)NCC2` [Example 67, 3-(3-chloro-2-methoxyanilino)-2-(3-{[(2R)-oxolan-2-yl]methoxy}pyridin-4-1)-1,5,6,7-tetrahydro-4H-pyrrolo[3,2-c]pyridin-4-one], the figures for the IC50 in assay [2] (setting [7]) and in assay [3] were 9.33 nM and 0.0908 nM, respectively.
In the case of `COc1c(Cl)cccc1Nc1c(-c2ccncc2OC[C@@H]2CCCO2)[nH]c2c1C(=O)NCC2` [Example 66, 3-(3-chloro-2-methoxyanilino)-2-(3-{[(2S)-oxolan-2-yl]methoxy}pyridin-4-yl)-1,5,6,7-tetrahydro-4H-pyrrolo[3,2-c]pyridin-4-one], the IC50 in assay [2] (setting [7]) is 4.6 nM; in assay [3], 0.0932 nM.
Take `COC(C)(C)COc1cnccc1-c1[nH]c2c(c1Nc1cccc(F)c1C)C(=O)NCC2` [Example 21, 3-[(3-fluoro-2-methylphenyl)amino]-2-[3-(2-methoxy-2-methylpropoxy)pyridin-4-yl]-1,5,6,7-tetrahydro-4H-pyrrolo[3,2-c]pyridin-4-one]: the IC50 in assay [1] (setting [4]) is 251 nM; in assay [2] (setting [5]) it was 8.81 nM; in assay [2] (Table 10, plated without EGF, 48 h), 7.48 nM and < 4.78 nM and 6.8 nM and 7.49 nM.
